# Target: T1, TRKA (NTRK1) recombinant His-tagged cytoplasmic domain aa 441-796 (Homo sapiens, UniProt P04629)
# T1 construct: aa 441-; 4 nM; 40 uM; 35 min; (NTRK1); 796; His; purchased Invitrogen PV3144
# Assay: Isolated TRK enzyme assay (HTRF KinEASE-TK), PV3144 TrkA
# Assay type: biochemical
# Conditions: 4 nM enzyme, 40 uM ATP, 35 min, arithmetic mean where more than one reading
# Description: Isolated TRK Enzyme assays use the HTRF KinEASE-TK kit (Cisbio Cat#62TK0PEJ) with recombinant His-tagged cytoplasmic domains of each TRK receptor sourced from Invitrogen (see table below). This activity-assay measures the phosphorylation of tyrosine residues within a substrate from the HTRF kit which has been validated by Cisbio for a variety of tyrosine kinases including the TRK receptors.
# 0.5 mM stock solutions of test compounds are prepared and serially diluted in 100% DMSO. A standard curve using the compound of Example 135 disclosed in WO2005/116035 of 150 uM is also prepared on each test plate. High percentage effect (HPE) is defined by 150 uM (using the compound of Example 135 as disclosed in WO2005/116035) and 0% effect (ZPE) is defined by 100% DMSO. Greiner low volume black plates containing 0.2 ul of serially diluted compound, standard and HPE/ZPE are created using the Bravo nanolitre dispenser.
# 1× enzyme buffer is prepared from 5× Enzymatic Buffer from the Cisbio KinEASE TK kit using MilliQ water. The buffer is then supplemented with 10 mM MgCl and 2 mM DTT (both from Sigma). In the case of TRKB, the buffer is also supplemented with 125 nM Supplement Enzymatic Buffer (SEB) from the Cisbio kit.
# 2×FAC of enzyme and 2×FAC ATP diluted in 1× complete enzyme buffer is incubated at room temperature for 20 minutes to preactivate the enzyme. Following this preactivation step, 5 ul/well of enzyme+ATP mix is added using a Multidrop Micro to the assay plate, spotted with 0.2 ul 100% DMSO compound. […]
# After the Detection Reagent addition, plates are covered and incubated at room temperature for 60 minutes. HTRF signal is read using an Envision reader, measured as a ratio of emissions at two different wavelengths, 620 nm and 665 nm. […] Test compound data are expressed as percentage inhibition defined by HPE and ZPE values for each plate. […]
# Below are TrkA IC50 data generated using the PV3144 TrkA enzyme assay. Where more than one reading was taken, the arithmetic mean is presented.
# T1 sequence (P04629 441-796): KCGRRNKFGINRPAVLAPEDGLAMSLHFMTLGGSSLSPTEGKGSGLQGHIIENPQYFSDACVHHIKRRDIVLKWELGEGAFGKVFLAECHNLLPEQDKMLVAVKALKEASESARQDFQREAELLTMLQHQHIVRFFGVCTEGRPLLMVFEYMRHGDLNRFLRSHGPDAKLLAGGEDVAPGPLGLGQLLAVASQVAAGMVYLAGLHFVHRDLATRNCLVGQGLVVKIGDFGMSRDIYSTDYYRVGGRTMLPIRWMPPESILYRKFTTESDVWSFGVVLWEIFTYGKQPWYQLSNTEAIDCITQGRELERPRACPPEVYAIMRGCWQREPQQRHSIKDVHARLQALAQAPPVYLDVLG
row,IC50,SMILES
1,21 nM,"CC(C)n1nc(C(=O)c2ccnc(NC(=O)Cc3coc(C4CC4)n3)c2)c2cnccc21 [Example 1, 2-(2-cyclopropyl-1,3-oxazol-4-yl)-N-{4-[(1-isopropyl-1H-pyrazolo[4,3-c]pyridin-3-yl)carbonyl]pyridin-2-yl}acetamide]"
2,20.4 nM,"CC(C)n1nc(C(=O)c2ccnc(NC(=O)Cc3ccc(C#N)cc3)c2)c2cnccc21 [Example 2, 2-(4-cyanophenyl)-N-{4-[(1-isopropyl-1H-pyrazolo[4,3-c]pyridin-3-yl)carbonyl]pyridin-2-yl}acetamide]"
3,16.6 nM,"CC(C)c1nc(C(=O)c2ccnc(NC(=O)Cn3ccc(C(F)(F)F)n3)c2)c2cnccn12 [Example 3, N-{4-[(3-isopropylimidazo[1,5-a]pyrazin-1-yl)carbonyl]pyridin-2-yl}-2-[3-(trifluoromethyl)-1H-pyrazol-1-yl]acetamide]"
